Laboratory results from patent publication US12459951B2, “Compounds that interact with RAS superfamily proteins for treatment of cancers, inflammatory diseases, rasopathies, and fibrotic disease” (SHY Therapeutics, LLC, priority 2022, dated 2025).
Read-outs that look alike come from different tables or passages of the source.

Legend:
MAPK p38 phosphorylation = assay: MAPK p38 Activation Assay (western blot), Panc-1; format: cell-based, human; details: at 10 μM, Panc-1 pancreatic cancer cell line; starred symbols = activation
Procedure, shortened: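 Panc-1 cells (KRas G12D) were treated with compound for 6 h at 37 °C, at 10 μM or as serial dilutions for IC50, with 0.3% DMSO. Method 1 used overnight serum-starved cells (0.5% FBS) stimulated with 1.5 ng/ml EGF for 15 min; Method 2 used unstimulated cells in 10% FBS. Phospho-p38 (Thr180/Tyr182) was detected by western blot.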

[1] = test system: MiaPaca-2 (expressing KRAS G12C mutant); assay: Proliferation Assay (Cell Viability Assay); format: cell-based; details: Homo sapiens, MIA PaCa-2
Procedure, shortened: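 MiaPaca-2 cells (KRAS G12C) were grown in DMEM-high glucose with 10% FBS, seeded at 2000–5000 cells/well and cultured overnight. Compounds were added at 10 μM final, or as serial dilutions for IC50, in 0.3% DMSO/10% FBS for 2–4 days at 37 °C, 5% CO2. Viability was measured with CellTiter 96 Aqueous One and % inhibition calculated.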

[2] = read-out: Proliferation in MiaPaca-2: IC50

IC50 [1, 2] | IC50 ([1]; Proliferation assay, MiaPaca-2, read-out: MiaPaca-2 IC50 (nM) Pancreatic) | Structure (SMILES) | % inh of MAPK p38 in Panc-1 (MAPK p38 phosphorylation)
> 1000 nM |  | CO[C@H]1C[C@H](Nc2nc(-c3nccn3C)nn3cc(-c4ccc(CCN)cc4)c(-c4ccccc4)c23)C1.Cl [Compound 207, 6-(4-(2-Aminoethyl)phenyl)-N-((1r,3r)-3-methoxycyclobutyl)-2-(1-methyl-1H-imidazol-2-yl)-5-phenylpyrrolo[2,1-f][1,2,4]triazin-4-amine hydrochloride salt] | H (H = 100% inhibition)
> 1000 nM |  | CO[C@H]1C[C@H](Nc2nc(-c3nccn3C)nn3cc(-c4ccc(OCCN)cc4)c(-c4ccccc4)c23)C1.Cl [Compound 208, 6-(4-(2-Aminoethoxy)phenyl)-N-((1r,3r)-3-methoxycyclobutyl)-2-(1-methyl-1H-imidazol-2-yl)-5-phenylpyrrolo[2,1-f][1,2,4]triazin-4-amine hydrochloride salt] | G (G = 75-99% inhibition)
150 to 500 nM |  | COc1cccc(-c2cn3nc(-c4nccn4C)nc(N[C@H]4C[C@H](OC)C4)c3c2-c2ccccc2)c1C [Compound 209, 6-(3-methoxy-2-methylphenyl)-N-((1r,3r)-3-methoxycyclobutyl)-2-(1-methyl-1H-imidazol-2-yl)-5-phenylpyrrolo[2,1-f][1,2,4]triazin-4-amine] | H (H = 100% inhibition)
510 to 1000 nM |  | CO[C@H]1C[C@H](Nc2nc(-c3nccn3C)nn3cc(-c4cccc5c4CCO5)c(-c4ccccc4)c23)C1 [Compound 210, 6-(2,3-Dihydrobenzofuran-4-yl)-N-((1r,3r)-3-methoxycyclobutyl)-2-(1-methyl-1H-imidazol-2-yl)-5-phenylpyrrolo[2,1-f][1,2,4]triazin-4-amine] | G (G = 75-99% inhibition)
> 1000 nM |  | Cn1ccnc1-c1nc(NS(C)(=O)=O)c2c(-c3ccccc3)c(-c3ccccc3)cn2n1 [Compound 212, N-(2-(1-Methyl-1H-imidazol-2-yl)-5,6-diphenylpyrrolo[2,1-f][1,2,4]triazin-4-yl) methanesulfonamide] | F (F = 31-74% inhibition)
510 to 1000 nM |  | COCCCS(=O)(=O)Nc1nc(-c2nccn2C)nn2cc(-c3ccccc3)c(-c3ccccc3)c12 [Compound 213, 3-Methoxy-N-(2-(1-methyl-1H-imidazol-2-yl)-5,6-diphenylpyrrolo[2,1-f][1,2,4]triazin-4-yl)propane-1-sulfonamide] | F (F = 31-74% inhibition)
> 1000 nM |  | CO[C@H]1C[C@H](S(=O)(=O)Nc2nc(-c3nccn3C)nn3cc(-c4ccccc4)c(-c4ccccc4)c23)C1 [Compound 214, (1r,3r)-3-Methoxy-N-(2-(1-methyl-1H-imidazol-2-yl)-5,6-diphenylpyrrolo[2,1-f][1,2,4]triazin-4-yl)cyclobutane-1-sulfonamide] | G (G = 75-99% inhibition)
> 1000 nM |  | COc1ccnc(Nc2nc(-c3nccn3C)nn3cc(-c4ccn(CCNC(=O)CCCC[C@H]5SC[C@H]6NC(=O)N[C@H]65)n4)c(C)c23)c1 [Compound 215, N-(2-(3-(4-((4-methoxypyridin-2-yl)amino)-5-methyl-2-(1-methyl-1H-imidazol-2-yl)pyrrolo[2,1-f][1,2,4]triazin-6-yl)-1H-pyrazol-1-yl)ethyl)-5-((3aR,4R,6aS)-2-oxohexahydro-1H-thieno[3,4-d]imidazol-4-yl)pentanamide] | F (F = 31-74% inhibition)
< 150 nM |  | COc1ccnc(Nc2nc(-c3nccn3C)nn3cc(-c4c(F)cccc4OC)c(-c4ccccc4)c23)c1 [Compound 217, 6-(2-Fluoro-6-methoxyphenyl)-N-(4-methoxypyridin-2-yl)-2-(1-methyl-1H-imidazol-2-yl)-5-phenylpyrrolo[2,1-f][1,2,4]triazin-4-amine] | F (F = 31-74% inhibition)
> 1000 nM |  | CO[C@H]1C[C@H](Nc2nc(-c3nccn3C)nn3cc(-c4cnccc4C)c(-c4ccccc4)c23)C1 [Compound 218, N-((1r,3r)-3-Methoxycyclobutyl)-2-(1-methyl-1H-imidazol-2-yl)-6-(4-methylpyridin-3-yl)-5-phenylpyrrolo[2,1-f][1,2,4]triazin-4-amine] | F* (F* = 31-74% activation)
> 1000 nM |  | COc1ccnc(Oc2nc(-c3nccn3C)nn3cc(-c4ccn(C)n4)c(C)c23)c1 [Compound 220, 4-((4-Methoxypyridin-2-yl)oxy)-5-methyl-2-(1-methyl-1H-imidazol-2-yl)-6-(1-methyl-1H-pyrazol-3-yl)pyrrolo[2,1-f][1,2,4]triazine] | F (F = 31-74% inhibition)
< 150 nM | 1 to 10 nM | Cc1c(-c2ccn(C)n2)cn2nc(-c3nccn3C)nc(Nc3cc4c(cn3)CCO4)c12 [Compound 221, N-(5-Methyl-2-(1-methyl-1H-imidazol-2-yl)-6-(1-methyl-1H-pyrazol-3-yl)pyrrolo[2,1-f][1,2,4]triazin-4-yl)-2,3-dihydrofuro[3,2-c]pyridin-6-amine] | E (E = 1-30% inhibition)
